# Tests used:
# [1] = test system: Haemophilus influenzae; test: Minimum inhibition concentration against Haemophilus influenzae strains; type: functional
# [2] = test system: Staphylococcus aureus; test: Minimum inhibition concentration against Staphylococcus aureus strains in presence of 8% calf serum; type: functional
# [3] = test system: Staphylococcus aureus; test: Minimum inhibition concentration against Staphylococcus aureus strains in presence of 2% calf serum; type: functional
# [4] = test system: Staphylococcus aureus; test: Minimum inhibition concentration against Staphylococcus aureus strains in presence of >32% calf serum; type: functional
# [5] = test system: Staphylococcus aureus; test: Minimum inhibition concentration against Staphylococcus aureus strains in presence of 1% calf serum; type: functional
# [6] = test system: Staphylococcus aureus; test: Minimum inhibition concentration against Staphylococcus aureus strains in presence of 16% calf serum; type: functional
# [7] = test system: Staphylococcus aureus; test: Minimum inhibition concentration against Staphylococcus aureus strains in presence of 0.5% calf serum; type: functional
# [8] = test system: Staphylococcus aureus; test: Minimum inhibition concentration against Staphylococcus aureus strains in presence of 0.03% calf serum; type: functional
# [9] = test system: Staphylococcus aureus; test: Minimum inhibition concentration against Staphylococcus aureus strains in presence of 32% calf serum; type: functional; details: Staphylococcus aureus
# [10] = test system: Staphylococcus aureus; test: Minimum inhibition concentration against Staphylococcus aureus strains in presence of >64% calf serum; type: functional
# [11] = Minimum inhibition concentration against Haemophilus influenzae strains; range is 2-8 […]; type: functional
# [12] = Half life for compound in mouse was determined; type: ADME; details: in vivo
# [13] = Area under curve concentration in mouse was determined; type: ADME; details: in vivo
# [14] = Maximum serum concentration in mouse was determined; type: ADME, organism-based
# [15] = Protective dose against Staphylococcus aureus in mice after 8 days of oral b.i.d. administration at 1 and 5 hr per interval (n=10); type: functional; details: read-out: PD50
# [16] = test system: Staphylococcus aureus; test: Minimum inhibition concentration against Staphylococcus aureus strains in presence of 4% calf serum; type: functional
# [17] = test system: Mus musculus; test: Protective dose against Staphylococcus aureus in mice after 8 days of oral b.i.d. administration at 1 and 5 h per interval with water as vehicle (n=10); range is 5-6 mg/kg/day; type: functional; details: read-out: PD50
smiles,measurement,setting,value
COc1ccccc1-c1ccc(-c2cn(CNC(C)=O)oc2=O)cc1,MIC,[1],32 µg/mL
same,MIC,[2],0.5 µg/mL
CC(=O)NCn1cc(-c2ccc(-c3ccc(C(C)=O)cc3)cc2)c(=O)o1,MIC,[3],0.06 µg/mL
same,MIC,[1],4 µg/mL
CC(=O)NCn1cc(-c2ccc(-c3ccc(Oc4ccccc4)cc3)cc2)c(=O)o1,MIC,[4],64 µg/mL
same,MIC,[1],> 32 µg/mL
CC(=O)NCn1cc(-c2ccc(-c3ccc([N+](=O)[O-])cc3)cc2)c(=O)o1,MIC,[5],0.03 µg/mL
same,MIC,[1],> 32 µg/mL
CC(=O)NCn1cc(-c2ccc(-c3cccc(C(=O)O)c3)cc2)c(=O)o1,MIC,[6],16 µg/mL
same,MIC,[1],8 µg/mL
COC(=O)c1ccc(-c2ccc(-c3cn(CNC(C)=O)oc3=O)cc2)cc1,MIC,[7],0.06 µg/mL
same,MIC,[1],> 32 µg/mL
CC(=O)NCn1cc(-c2ccc(-c3ccsc3)cc2)c(=O)o1,MIC,[8],0.03 µg/mL
same,MIC,[1],4 µg/mL
CC(=O)NCn1cc(-c2ccc(-c3ccc(C(=O)O)c(F)c3)cc2)c(=O)o1,MIC,[9],4 µg/mL
same,MIC,[1],32 µg/mL
COc1cc(-c2ccc(-c3cn(CNC(C)=O)oc3=O)cc2)cc(OC)c1OC,MIC,[6],4 µg/mL
same,MIC,[1],> 32 µg/mL
CC(=O)NCn1cc(-c2ccc(-c3ncn(C)n3)cc2)c(=O)o1,MIC,[1],> 64 µg/mL
same,MIC,[2],4 µg/mL
CC(=O)NCn1cc(-c2ccc(-c3ccc[nH]3)cc2)c(=O)o1,MIC,[6],8 µg/mL
same,MIC,[1],> 64 µg/mL
CSc1ccc(-c2ccc(-c3cn(CNC(C)=O)oc3=O)cc2)cc1,MIC,[6],0.5 µg/mL
same,MIC,[1],> 32 µg/mL
CC(=O)NCn1cc(-c2ccc(-c3ccc(Cl)cc3)cc2)c(=O)o1,MIC,[1],> 32 µg/mL
same,MIC,[2],0.06 µg/mL
CC(=O)NCn1cc(-c2ccc(-c3ccc(C)nc3)cc2)c(=O)o1,MIC,[3],0.25 µg/mL
same,MIC,[1],8 µg/mL
CC(=O)NCn1cc(-c2ccc(-c3sccc3CN3CCOCC3)cc2)c(=O)o1,MIC,[1],> 64 µg/mL
same,MIC,[10],8 µg/mL
CC(=O)NCn1cc(-c2ccc(C3CCN(C(C)=O)CC3)cc2)c(=O)o1,MIC,[5],1 µg/mL
same,MIC,[1],8 µg/mL
CC(=O)NCn1cc(-c2ccc(-c3ccc(C#N)cc3)cc2)c(=O)o1,MIC,[3],0.06 µg/mL
same,MIC,[1],4 µg/mL
CC(=O)NCn1cc(-c2ccc(-c3ccc(C(F)(F)F)cc3)cc2)c(=O)o1,MIC,[1],> 32 µg/mL
same,MIC,[2],0.25 µg/mL
CC(=O)NCn1cc(-c2ccc(-c3cccs3)cc2)c(=O)o1,MIC,[11],2 µg/mL
same,MIC,[2],0.25 µg/mL
CC(=O)NCn1cc(-c2ccc(-c3cccc(N)c3)cc2)c(=O)o1,MIC,[3],0.125 µg/mL
same,MIC,[1],2 µg/mL
CC(=O)NCn1cc(-c2ccc(C3CCOCC3)cc2)c(=O)o1,MIC,[3],1 µg/mL
same,MIC,[1],32 µg/mL
CC(=O)NCn1cc(-c2ccc(-c3ccc(C(=O)O)cc3)cc2)c(=O)o1,half-life,[12],8.5 min
same,AUC,[13],0.56 µg/h/mL
same,Cmax,[14],1700 ng/mL
same,MIC,[1],2 µg/mL
same,MIC,[2],1 µg/mL
same,ED50,[15],> 50 mg/kg/day
CC(=O)NCn1cc(-c2ccc(-c3ccc(F)cc3)cc2)c(=O)o1,MIC,[16],0.03 µg/mL
same,MIC,[1],2 µg/mL
same,ED50,[15],< 5 mg/kg/day
CC(=O)NCn1cc(-c2ccc(-c3ccoc3)cc2)c(=O)o1,MIC,[16],0.125 µg/mL
same,MIC,[1],4 µg/mL
same,ED50,[15],> 50 mg/kg/day
COc1ccc(-c2ccc(-c3cn(CNC(C)=O)oc3=O)cc2)cc1OC,MIC,[5],0.25 µg/mL
same,MIC,[1],32 µg/mL
CC(=O)NCn1cc(-c2ccc(-c3sccc3CO)cc2)c(=O)o1,MIC,[16],0.25 µg/mL
same,MIC,[1],32 µg/mL
CC(=O)NCn1cc(-c2ccc(-c3ccc(/C=C/[N+](=O)[O-])cc3)cc2)c(=O)o1,MIC,[16],0.125 µg/mL
same,MIC,[1],4 µg/mL
CC(=O)NCn1cc(-c2ccc(C3=CCN(C(C)=O)CC3)cc2)c(=O)o1,half-life,[12],6.4 min
same,AUC,[13],1.5 µg/h/mL
same,Cmax,[14],2600 ng/mL
same,MIC,[7],0.25 µg/mL
same,MIC,[1],2 µg/mL
same,ED50,[15],9 mg/kg/day
CC(=O)NC[C@H]1CN(c2ccc(N3CCOCC3)c(F)c2)C(=O)O1 [LINEZOLID],MIC,[3],1 µg/mL
same,ED50,[17],6 mg/kg/day
same,MIC,[1],32 µg/mL

# Reference: ChEMBL document CHEMBL1139561, “Biaryl isoxazolinone antibacterial agents” (Bioorg Med Chem Lett, 2005)
